Data reported in patent US10294202B2, “Pyrrolidinones as herbicides” (FMC Corporation, priority 2013, dated 2019).

What was measured:
[1] = test system: corn; assay: Test A pre-/postemergence herbicide test; assay type: in vivo, Zea mays; conditions: for Corn plant response rating: Preemergence, visual rating on 0 to 100 scale (0 no effect, 100 complete control)
Method in brief: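 Directed soil spray to seeded pots (preemergence) or spray onto one- to two-leaf seedlings 2–10 cm tall (postemergence); loam/sand substrate throughout. Evaluated visually after about 10 days against untreated plants, 0 = no effect, 100 = complete control.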

[2] = test system: velvetleaf; assay: Test C pre-/postemergence herbicide test; assay type: in vivo, Abutilon theophrasti; conditions: Preemergence
Text: (§1) Seeds of plant species selected from blackgrass (Alopecurus myosuroides), ryegrass, Italian (Italian ryegrass, Lolium multiflorum), wheat (winter wheat, Triticum aestivum), galium (catchweed bedstraw, Galium aparine), corn (Zea mays), crabgrass, large (large crabgrass, Digitaria sanguinalis), foxtail, giant (giant foxtail, Setaria faberii), johnsongrass (Sorghum halepense), lambsquarters (Chenopodium album), morningglory (Ipomoea coccinea), nutsedge, yellow (yellow nutsedge, Cyperus esculentus), pigweed (Amaranthus retroflexus), ragweed (common ragweed, Ambrosia elatior), soybean (Glycine max), barnyardgrass (Echinochloa crus-galli), oilseed rape (Brassica napus), waterhemp (common waterhemp, Amaranthus rudis), kochia (Kochia scoparia), oat, wild (wild oat, Avena fatua), surinam grass (Brachiaria decumbens), foxtail, green (green foxtail, Setaria viridis), goosegrass (Eleusine indica), bromegrass, downy (downy bromegrass, Bromus tectorum), nightshade (eastern black nightshade, Solanum ptycanthum), cocklebur (common cocklebur, Xanthium strumarium), cupgrass, woolly (woolly cupgrass, Eriochloa villosa), bermudagrass (Cynodon dactylon), sunflower, (common oilseed sunflower, Helianthus annuus), Russian thistle (Salsola kali) and velvetleaf (Abutilon theophrasti) were planted into a blend of loam soil and sand and treated preemergence with test chemicals formulated in a non-phytotoxic solvent mixture which included a surfactant. At the same time, plants selected from these crop and weed species and also barley (winter barley, Hordeum vulgare), […]), chickweed (common chickweed, Stellaria media), deadnettle (henbit deadnettle, Lamium amplexicaule), and canarygrass (littleseed canarygrass, Phalaris minor) were planted in pots containing Redi-Earth® planting medium (Scotts Company, 14111 Scottslawn Road, Marysville, Ohio 43041) comprising spaghnum peat moss, vermiculite, wetting agent and starter nutrients and treated with postemergence applications of test chemicals formulated in the same manner. Plants ranged in height from 2 to 18 cm (1- to 4-leaf stage) for postemergence treatments. Treated plants and controls were maintained in a greenhouse for 13 to 15 days, after which time all species were compared to controls and visually evaluated. Plant response ratings, summarized in Table C, are based on a scale of 0 to 100 where 0 is no effect and 100 is complete control. A dash (-) response means no test result.

[3] = test system: waterhemp; assay: Test C pre-/postemergence herbicide test; assay type: in vivo, Amaranthus rudis; conditions: Preemergence
Text: as §1

[4] = test system: ryegrass, Italian; assay: Test C pre-/postemergence herbicide test; assay type: in vivo, Lolium multiflorum; conditions: Preemergence
Text: as §1

[5] = test system: oilseed rape; assay: Test C pre-/postemergence herbicide test; assay type: in vivo, Brassica napus; conditions: Preemergence
Text: as §1

[6] = test system: soybean; assay: Test C pre-/postemergence herbicide test; assay type: in vivo, Glycine max; conditions: Preemergence
Text: as §1

[7] = test system: blackgrass; assay: Test C pre-/postemergence herbicide test; assay type: in vivo, Alopecurus myosuroides; conditions: Preemergence
Text: as §1

[8] = test system: crabgrass, large; assay: Test C pre-/postemergence herbicide test; assay type: in vivo, Digitaria sanguinalis; conditions: Preemergence
Text: as §1

[9] = Postemergence, 125 g ai/ha, 0 to 100 scale, 0 no effect, 100 complete control
[10] = Postemergence, 500 g ai/ha, 0 to 100 scale (0 no effect, 100 complete control)
[11] = preemergence, 500 g ai/ha, 0 to 100 scale
[12] = 31 g ai/ha, scale 0 to 100, 0 is no effect and 100 is complete control
[13] = 62 g ai/ha, scale 0 to 100 (0 no effect, 100 complete control)
[14] = 125 g ai/ha, scale 0 to 100 (0 no effect, 100 complete control)

O=C1NCC(c2cccc(C(F)(F)F)c2)C1C(=O)Nc1ccccc1F (racemic) [Compound 3]
Plant response rating, Corn [1, 9]: 0 | Plant response rating, Corn [1, 10]: 60 | Corn plant response rating ([1]; 125 g ai/ha): 0 | Plant response rating, Corn [1, 11]: 50

O=C1NCC(c2cccc(C(F)F)c2)C1C(=O)Nc1cccc(F)c1F (racemic) [Compound 211]
Velvetleaf plant response rating [2, 12]: 0 | Velvetleaf plant response rating [2, 13]: 10 | Plant response rating, Velvetleaf [2, 14]: 30 | Plant response rating (scale of 0 to 100), Velvetleaf ([2]; 250 g ai/ha): 35 | Waterhemp plant response rating [3, 12]: 85 | Waterhemp plant response rating [3, 13]: 75 | Plant response rating, Waterhemp [3, 14]: 100 | Plant response rating (scale of 0 to 100), Waterhemp ([3]; 250 g ai/ha): 90 | Ryegrass, Italian plant response rating [4, 12]: 0 | Ryegrass, Italian plant response rating [4, 13]: 35 | Plant response rating, Ryegrass, Italian [4, 14]: 40 | Plant response rating (scale of 0 to 100), Ryegrass, Italian ([4]; 250 g ai/ha): 50 | Oilseed Rape plant response rating [5, 12]: 0 | Oilseed Rape plant response rating [5, 13]: 35 | Plant response rating, Oilseed Rape [5, 14]: 90 | Plant response rating (scale of 0 to 100), Oilseed Rape ([5]; 250 g ai/ha): 90 | Soybean plant response rating [6, 12]: 0 | Soybean plant response rating [6, 13]: 0 | Plant response rating, Soybean [6, 14]: 5 | Plant response rating (scale of 0 to 100), Soybean ([6]; 250 g ai/ha): 0 | Blackgrass plant response rating [7, 12]: 0 | Plant response rating, Blackgrass ([7]; 62 g ai/ha, scale 0 to 100): 20 | Plant response rating, Blackgrass [7, 14]: 85 | Plant response rating (scale of 0 to 100), Blackgrass ([7]; 250 g ai/ha): 90 | Plant response rating, Corn ([1]; Postemergence, 125 g ai/ha, 0 to 100 scale, 0 is no effect, 100 is complete control): 30 | Corn plant response rating (0 to 100 scale, 0 is no effect, 100 is complete control) ([1]; Postemergence, 500 g ai/ha): 70 | Crabgrass, Large plant response rating [8, 12]: 100 | Crabgrass, Large plant response rating [8, 13]: 95 | Plant response rating, Crabgrass, Large [8, 14]: 95 | Plant response rating (scale of 0 to 100), Crabgrass, Large ([8]; 250 g ai/ha): 95

O=C1NCC(c2ccc(F)c(F)c2)C1C(=O)Nc1cccc(F)c1 (racemic) [Compound 12]
Plant response rating, Corn [1, 9]: 0 | Plant response rating, Corn [1, 10]: 0 | Corn plant response rating ([1]; 125 g ai/ha): 0 | Plant response rating, Corn [1, 11]: 0
